Results published in patent US5432058A, “Method for measuring human cholesterol absorption using metabolically stable isotopes” (priority 1992, dated 1995).
Where “and” joins values, the source holds several entries; their conditions need not be identical. Equal values may be shown once. Read-outs that look alike come from different tables or passages of the source.

Tests used:
[1] = parameters: species or system rabbits; details: rabbit, in vivo
Experimental: [26,26,26,27,27,27]-^2 H-cholesterol shown if FIG. 2 was prepared by Dr. Eric Stohler of Biodesign, Inc. The deuterium in the labeled cholesterol is located on stable terminal methyl groups of the side chain. When both: ^13 C-cholesterol and ^2 H-cholesterols were given intravenously or orally to rabbits there was no change in the plasma ratio of the two cholesterols over one week.

[2] = Preparation of Intralipid infusate: filter passage and residual tracer in syringe and lines; format: physicochemical
Experimental: (§1) [23,24,25,26,27]-^13 C-cholesterol suitable for intra venous administration was prepared in a laminar flow hood. The labeled cholesterol was dissolved at 5 mg/ml in USP ethanol in a sterile container, water was added to 10% by volume in order to increase virucidal activity, and the solution was allowed to stand at room temperature for at least 6 hrs. The solvents were then sterilely removed and the cholesterol residue dissolved at 20 mg/ml in ethanol and passed through a 0.22 micron solvent-resistant filter. Aliquots were tested for sterility and dried aliquots for pyrogenicity using the Limulus assay, and the stock was kept frozen at -70° C. On the day of the experiment both the ^13 C-cholesterol and a small amount of 10% Intralipid were warmed to 37° C. and the ethanolic cholesterol was added dropwise to 4 volumes of Intralipid. After 5 minutes at 37° C. and 15 min. at room temperature the mixture was put through a 0.8 micron particulate filter. More than 94% of the labeled cholesterol passed through the filter. An aliquot containing approximately 15 mg. ^13 C-cholesterol was drawn into atared syringe and weighed. The syringe contents were injected over 5 minutes into a running saline infusion and the syringe was washed several times with saline.

[3] = Dual stable isotope cholesterol absorption study in healthy subjects (oral and intravenous tracers, plasma tracer ratio by GC/MS on day 3); format: in vivo, human; details: for Fa at 72 h: human, in vivo, po, 30 mg
Experimental: There is a paucity of information concerning cholesterol absorption in humans, and one prominent reason for this deficiency is the need to administer long-lived radioactive cholesterol tracers. To eliminate this hazard, we have developed a procedure, based on that of Zilversmit (Prof. Soc. Exp. Med. Biol. 140:862-865, 1972), employing stable isotopic tracers of cholesterol. One metabolically stable cholesterol tracer is administered orally and a second metabolically stable cholesterol tracer is administered intravenously on day 0. The ratio of the two tracers is determined after equilibration on about day 3 by gas chromatography-mass spectrometry (GC/MS) with selected ion monitoring. Ion current peaks corresponding to the first and second tracers are corrected for spillover From each other and from endogenous cholesterol. Percent cholesterol absorption is calculated as the ratio of the cholesterol tracers. The use of stable cholesterol isotopes for the study of cholesterol absorption is feasible, precise, safe and allows broad application of cholesterol absorption measurements in humans including women and children, thereby Facilitating clinical genetic studies in groups about which little current data is available.
There is a waiting period after the cholesterol tracers of this invention have been administered to a human subject. The waiting period allows the ingested cholesterol tracer to reach equilibrium in the subject's blood. The waiting period can range from 12 hours to about 5 days or more. However, it is preferred that the waiting period is from about 24 hours to about 96 hours. Following the waiting period, a blood sample is withdrawn from the subject and analyzed by GC/MS techniques to determine the relative amount of the two cholesterol tracers and the natural cholesterols in the sample. The GC/MS data is corrected to provide the actual relative amounts of the cholesterol tracers in the blood sample and a cholesterol absorption percentage is calculated based upon the amount of cholesterol tracers introduced into the body in relation to the amount in the blood samples.
Five healthy subjects (three men and two women, age 22-34) underwent two cholesterol absorption studies separated by 4-6 weeks. Out patient subjects received a National Cholesterol Education Program step I diet prepared in the metabolic kitchen of the Washington University Clinical Research Center for five days. Starting two days before testing and ending three days after testing. The metabolically stable cholesterols were given on day 0 with a meal containing 240 ml of whole milk as a source of fat to assure contraction of the gallbladder.
as §1, with “saline. […]” for “saline.”

[4] = humans, background; cited from earlier work

| SMILES | change in the plasma ratio of the two cholesterols [1] | labeled cholesterol passed through the filter ([2]; ethanolic cholesterol in 4 volumes of 10% Intralipid, 0.8 micron particulate filter) | solubilization of cholesterol ([2]; with use of Intralipid) | tracer cholesterol found in the syringe and intravenous lines ([2]; with use of Intralipid) | Fa at 72 h ([3]; mean of five healthy subjects, test 1, read-out: mean cholesterol absorption, Test 1) | Fa at 72 h ([3]; mean of five healthy subjects, test 2, 4-6 weeks later, read-out: mean cholesterol absorption, Test 2) | Fa at 72 h ([3]; test 1, five healthy subjects, read-out: cholesterol absorption, range between subjects) | cholesterol absorption, Test 1 ([3]; individual subjects 1-5, oral ^2 H-cholesterol about 30 mg, i.v. ^13 C-cholesterol about 15 mg, plasma at three days, 4320 min) | cholesterol absorption, Test 2 ([3]; individual subjects 1-5, second study 4-6 weeks after Test 1, plasma at three days, 4320 min) | mean cholesterol absorption, Test 1 ([3]; mean of five healthy subjects, test 1, 4320 min) | percent of cholesterol absorbed [4] |
| --- | --- | --- | --- | --- | --- | --- | --- | --- | --- | --- | --- |
| [2H]C([2H])([2H])C(CCC[C@@H](C)[C@H]1CC[C@H]2[C@@H]3CC=C4C[C@@H](O)CC[C@]4(C)[C@H]3CC[C@]12C)C([2H])([2H])[2H] [^2 H-cholesterol, [26,26,26,27,27,27]-^2 H-cholesterol] | no change |  |  |  |  |  |  |  |  |  |  |
| C[C@H](C[13CH2][13CH2][13CH]([13CH3])[13CH3])[C@H]1CC[C@H]2[C@@H]3CC=C4C[C@@H](O)CC[C@]4(C)[C@H]3CC[C@]12C [^13 C-cholesterol, [23,24,25,26,27]-^13 C-cholesterol] | no change | More than 94% | quantitatively solubilized | less than 0.4% |  |  |  |  |  |  |  |
| CC(C)CCC[C@@H](C)[C@H]1CC[C@H]2[C@@H]3CC=C4C[C@@H](O)CC[C@]4(C)[C@H]3CC[C@]12C [cholesterol] |  |  |  |  | 59.3 ± 8.4% | 57.6 ± 8.2% | 47 to 71% | 59.4% and 62.2% and 70.5% and 47.4% and 57.1% | 62.4% and 58.0% and 67.2% and 45.4% and 55.0% | 59% | 15% to 75 |
